Values after ≈ are worked out from the molar mass of the structure shown.

In general, logP refers to the decadic logarithm of the partition coefficient of the neutral form, usually between octanol and water. As for `CCC(C)(NC(=O)c1cc(Cl)c(C)c(Cl)c1)C(=O)CCl` (configuration not stated), the logP is 3.76.

The compound `CN(C)C(=S)SSC(=S)N(C)C` registered a logP of 1.73.

In general, solubility refers to the concentration that dissolves in the medium under given conditions. Compound `C[n+]1ccc(-c2cc[n+](C)cc2)cc1.[Cl-].[Cl-]` displayed a logP of -4.5. In addition, under “20 °C”, the solubility was found to be 2720 mM.

Consider `CSc1nnc(C(C)(C)C)c(=O)n1/N=C/C(C)C`, for which the solubility (20 °C) is 0.0373 mM (≈ 10 µg/mL).

On to `CC(C)N1C(=O)N(c2ccccc2)CSC1=NC(C)(C)C`, for which the logP was 4.3. For the setting “20 °C”, this compound showed a solubility of 0.00295 mM (≈ 0.9 µg/mL).

`CCOP(=O)(OCC)SCCSCC` had a solubility (20 °C) of 7.74 mM (≈ 2000 µg/mL).

Broadly, the logD is lipophilicity at a set pH, counting ionised and neutral species. With `O=C(Nc1ccccc1)Nc1cnns1`, under “pH 7.3”, the logD was 1.77.

Take `CCN(CC)c1c([N+](=O)[O-])cc(C(F)(F)F)c(N)c1[N+](=O)[O-]`: the logP turned out to be 4.3.

In the case of `CCSC(=O)N(CC)C1CCCCC1`, the logP stood at 3.88.

Regarding `CCCC(=O)N(CSP(=S)(OC)OC)c1ccccc1Cl`, the logP was 0.56.

`CC1=C(C(=O)Nc2ccccc2)SCCO1` gave a solubility (20 °C) of 0.672 mM (≈ 158 µg/mL).

`CCCN(CC1CC1)c1c([N+](=O)[O-])cc(C(F)(F)F)cc1[N+](=O)[O-]` showed a solubility (20 °C) of 0.000288 mM (≈ 0.1 µg/mL).

For `O=[N+]([O-])c1cc(C(F)(F)F)c(Cl)c([N+](=O)[O-])c1Nc1ncc(C(F)(F)F)cc1Cl`, the logP was found to be 4.01.

Take `N#Cc1c(Cl)c(Cl)c(Cl)c(C#N)c1Cl`: the solubility (25 °C) is 0.00226 mM (≈ 0.6 µg/mL).

In the case of `C[n+]1ccc(-c2cc[n+](C)cc2)cc1`, under “20 °C”, the solubility was found to be 2410 mM.

Compound `CN1CSC(=S)N(C)C1` came in with a logP of 0.63. Further, for the setting “20 °C”, the solubility is 18.5 mM (≈ 3000 µg/mL).

In turn, `CC1(C(=O)Nc2ccc(O)c(Cl)c2Cl)CCCCC1` came in with a logP of 3.51.

`CC(C)N(C(=O)CCl)c1ccccc1`: the solubility (25 °C) stood at 3.31 mM (≈ 700 µg/mL).

Take `Nc1c(Cl)c(Cl)nc(C(=O)O)c1Cl`: the logP is 1.9.

As for `CC(Oc1cccc(Cl)c1)C(=O)O` (configuration not stated), the solubility (22 °C) was 5.98 mM (≈ 1200 µg/mL).

Regarding `CCCCC(CC)COC(=O)COc1ccc(Cl)cc1Cl` (configuration not stated), the logP is 5.78.

The compound `O=[N+]([O-])/N=C1\NCCN1Cc1ccc(Cl)nc1` yielded a logP of 0.57.

As to `COC(=O)c1ccccc1S(=O)(=O)NC(=O)N(C)c1nc(C)nc(OC)n1`, under “pH 5.0, 25 °C”, the solubility was determined as 0.126 mM (≈ 50 µg/mL).

`N#CN` yielded a logP of -0.82. Where the note is “20 °C”, this compound gave a solubility of 11900 mM (≈ 500000 µg/mL).

On to `CC(C)=CC1C(C(=O)OCc2coc(Cc3ccccc3)c2)C1(C)C` (configuration not stated), for which the solubility (25 °C) came out at 0.000315 mM (≈ 0.107 µg/mL).

`C/C=C(\C)C(=O)O[C@H]1C[C@@H](OC(C)=O)[C@@]2(C(=O)OC)CO[C@H]3[C@@H](O)[C@@](C)([C@]45O[C@@]4(C)[C@H]4C[C@@H]5O[C@@H]5OC=C[C@@]54O)[C@H]4[C@]1(CO[C@]4(O)C(=O)OC)[C@@H]32` yielded a solubility of 0.361 mM (≈ 260 µg/mL).

Compound `Nc1nc[nH]n1` yielded a logP of -0.97.

The compound `CC1=C(C(=O)Nc2ccccc2)S(=O)(=O)CCO1` had a log partition coefficient (logP) of 0.77. Moreover, the solubility (25 °C) was found to be 4.43 mM (≈ 1180 µg/mL).

For `CCCCCCCC(=O)Oc1c(Br)cc(C#N)cc1Br`, the logP came out at 5.4.

In turn, `CCN(Cc1ccc(Cl)nc1)/C(=C/[N+](=O)[O-])NC` showed a logP of -0.66.

Turning to `Nc1c(Cl)c(F)nc(OCC(=O)O)c1Cl`, under “pH 9.2, 20 °C”, the solubility amounted to 0.357 mM (≈ 91 µg/mL).

`CON=C(C(=O)OC)c1ccccc1CON=C(C)c1cccc(C(F)(F)F)c1` had a logP of 4.5.

Turning to `Cc1ccc2nc3sc(=O)sc3nc2c1`, the logP was determined as 3.78. Further, under “20 °C”, the solubility was 0.00427 mM (≈ 1 µg/mL).

`CCC(CC)Nc1c([N+](=O)[O-])cc(C)c(C)c1[N+](=O)[O-]` showed a logP of 5.2. For the same compound, under “20 °C”, the solubility was 0.00107 mM (≈ 0.3 µg/mL).

As for `CCC(C)(CC)c1cc(NC(=O)c2c(OC)cccc2OC)on1`, the logP was 3.94.

Turning to `Clc1ccc(C2(Cn3cncn3)CC(Br)CO2)c(Cl)c1` (configuration not stated), the logP was found to be 3.24. For the setting “25 °C”, the solubility was found to be 0.133 mM (≈ 50 µg/mL).

In the case of `CC(C)=CC1C(C(=O)OCc2cccc(Oc3ccccc3)c2)C1(C)C` (configuration not stated), the logP was determined as 6.01. The same compound came in with a solubility (25 °C) of under 2.77e-05 mM.

Compound `C#CCOS(=O)OC1CCCCC1Oc1ccc(C(C)(C)C)cc1` (configuration not stated) yielded a solubility (25 °C) of 0.00143 mM (≈ 0.5 µg/mL).

`CC1OC(C)OC(C)OC(C)O1` (configuration not stated) registered a logP of 0.12.

`CN/C(=N\[N+](=O)[O-])NCc1cnc(Cl)s1` gave a logP of 0.7.

The compound `CCOC1Oc2ccc(OS(C)(=O)=O)cc2C1(C)C` (configuration not stated) yielded a logP of 2.7. In addition, the solubility (25 °C) worked out at 0.259 mM (≈ 74.1 µg/mL).

As for `CCCC1COC(Cn2cncn2)(c2ccc(Cl)cc2Cl)O1` (configuration not stated), the logP came to 3.72. Moreover, under “20 °C”, the solubility was found to be 0.321 mM (≈ 110 µg/mL).

Under “20 °C”, `C[C@@H]1[C@@H](c2ccc(Cl)cc2)SC(=O)N1C(=O)NC1CCCCC1` (single isomer, unassigned) had a solubility of 0.00142 mM (≈ 0.5 µg/mL).

In the case of `Fc1ccc(Oc2ccnc3cc(Cl)cc(Cl)c23)cc1`, the logP turned out to be 4.66. Further, where the note is “20 °C”, the solubility amounted to 0.000376 mM (≈ 0.116 µg/mL).

In turn, `O=C(Nc1ccccc1-c1ccc(Cl)cc1)c1cccnc1Cl` gave a logP of 2.96.

`CCOC(=O)COc1cc(-c2nn(C)c(OC(F)F)c2Cl)c(F)cc1Cl`: the logP was found to be 3.49.

Consider `COC(=O)N(C(=O)N1CO[C@@]2(C(=O)OC)Cc3cc(Cl)ccc3C2=N1)c1ccc(OC(F)(F)F)cc1`, for which the log partition coefficient (logP) was 4.65.

As for `COC(=O)N(OC)c1ccccc1COc1ccn(-c2ccc(Cl)cc2)n1`, the logP was found to be 3.99.

Consider `CCCCNC1(P(=O)(OCCCC)OCCCC)CCCCC1`, for which the solubility (20 °C) was 0.489 mM (≈ 170 µg/mL).

In turn, `C=CCOC(Cn1ccnc1)c1ccc(Cl)cc1Cl` (configuration not stated) yielded a logP of 3.82. Besides, the solubility (pH 7.6, 20 °C) was 0.606 mM (≈ 180 µg/mL).

Compound `COC(=O)c1ccccc1CS(=O)(=O)NC(=O)Nc1nc(OC)cc(OC)n1` came in with a logP of 2.18.

In the case of `COC(=O)c1ccccc1S(=O)(=O)NC(=O)Nc1nc(C)cc(C)n1`, the solubility (pH 7.0, 25 °C) is 0.743 mM (≈ 271 µg/mL).

`CCCCOC(=O)[C@@H](C)Oc1ccc(Oc2ccc(C#N)cc2F)cc1` had a logP of 3.31.

The compound `N#CCON=C(C#N)c1ccccc1` registered a solubility (20 °C) of 0.513 mM (≈ 95 µg/mL).

Values taken from the OPERA property sets (Mansouri et al. 2018).
